In patent US9173882B2, “Polycyclic heteroaryl substituted triazoles useful as Axl inhibitors” (Rigel Pharmaceuticals, Inc., priority 2008, dated 2015):

What follows are compounds tested against T1, Axl (Homo sapiens, UniProt P30530) (assay: Phospho-Akt in-cell Western assay). Settings: Hela cells, stimulated by Axl-antibody cross-linking, phospho-Akt chemiluminescence; Table 1, formula (Ia).
T1 construct: endogenous in cells; host or cells: HeLa cells
T1 sequence (P30530 26-894): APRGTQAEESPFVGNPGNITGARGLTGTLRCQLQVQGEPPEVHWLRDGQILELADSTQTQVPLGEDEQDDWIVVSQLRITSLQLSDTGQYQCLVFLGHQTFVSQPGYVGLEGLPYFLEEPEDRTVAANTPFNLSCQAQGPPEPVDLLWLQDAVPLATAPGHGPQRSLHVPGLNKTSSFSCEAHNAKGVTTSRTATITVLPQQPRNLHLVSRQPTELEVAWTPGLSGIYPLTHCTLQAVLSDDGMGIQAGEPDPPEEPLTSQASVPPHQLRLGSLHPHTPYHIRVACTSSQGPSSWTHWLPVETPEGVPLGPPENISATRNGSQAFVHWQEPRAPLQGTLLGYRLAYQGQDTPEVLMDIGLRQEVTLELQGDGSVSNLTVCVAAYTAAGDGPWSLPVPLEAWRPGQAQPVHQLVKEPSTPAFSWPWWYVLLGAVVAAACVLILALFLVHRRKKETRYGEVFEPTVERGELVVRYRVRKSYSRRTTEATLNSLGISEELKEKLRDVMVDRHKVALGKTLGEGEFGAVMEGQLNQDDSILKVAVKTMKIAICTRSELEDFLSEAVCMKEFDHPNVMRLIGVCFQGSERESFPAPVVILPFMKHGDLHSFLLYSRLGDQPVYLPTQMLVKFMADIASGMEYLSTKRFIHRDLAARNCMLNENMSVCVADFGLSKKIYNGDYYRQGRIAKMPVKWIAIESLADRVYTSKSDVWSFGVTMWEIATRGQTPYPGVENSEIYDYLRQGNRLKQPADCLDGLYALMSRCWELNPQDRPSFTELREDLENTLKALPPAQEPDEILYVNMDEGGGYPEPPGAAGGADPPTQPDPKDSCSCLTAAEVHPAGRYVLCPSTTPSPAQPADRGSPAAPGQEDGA
Format: cell-based
Protocol: Phospho-Akt in-Cell Western Assay
The compounds of the invention were tested in the following assay for their ability to inhibit Axl activity.
• Cell culture plate: 96 well assay plate (Corning 3610), white, clear bottom, tissue-culture treated. • Cells: Hela cells. • Starvation medium: For Axl stimulation: 0.5% FCS (fetal calf serum) in DMEM, plus Axl/Fc (extracellular domain of AXL fused to imunoglobulin Fc region) (R&D, 154-AL) 500 ng/mL. • For EGF (epidermal growth factor) stimulation: 0.5% FCS in DMEM (Dulbecco's modified Eagles medium). • Poly-L-Lysine 0.01% solution (the working solution): 10 μg/ml, dilute In PBS (phosphate buffered saline). • Axl antibody cross-linking: • 1st: Mouse anti-Axl (R&D, MAB154). • 2nd: Biotin-SP-conjugated AffiniPure goat anti-mouse IgG (H+L) (Jackson ImmunoResearch #115-065-003). • Fixing buffer: 4% formaldehyde in PBS. • Wash buffer: 0.1% TritonX-100 in PBS. • Quenching buffer: 3% H2O2, 0.1% Azide in wash buffer, Azide and hydrogen peroxide (H2O2) are added fresh. • Blocking buffer: 5% BSA in TBST (tris buffered saline plus 0.1% Tween 20). • Primary antibody: Rabbit anti-human Phospho-Akt antibody (Cell Signaling 9271): 1×250 diluted in blocking buffer. • Secondary antibody: HRP (horse radish peroxidase)-conjugated Goat anti-Rabbit secondary, stock solution: Jackson ImmunoResearch (Goat anti-Rabbit HRP, #111-035-144) 1:1 diluted in glycerol, store at −20° C. The working solution: 1×2000 dilution of stock in blocking buffer. • Chemiluminescent working solution (Pierce, 37030): SuperSignal ELISA (enzyme linked immunosorbant assay) Pico Chemiluminescent substrate. • Crystal Violet solution: Stock: 2.5% Crystal violet in methanol, filtered and kept at ambient temperature. The working solution: dilute the stock 1:20 with PBS immediately before use. • 10% SDS: working solution: 5% SDS (sodium dodecylsulfate), diluted in PBS Methods: Day 1:
A 96 well TC (tissue culture treated) plate was coated with 10 μg/mL poly-L-Lysine at 37° C. for 30 min, washed twice with PBS, and air-dried for 5 minutes before cells were added. Hela cells were seeded at 10,000 cells/well and the cells were starved in 100 μL starvation medium containing Axl/Fc for 24 hrs.
The cells were pre-treated with test compounds by adding 100 μL of 2× test compound to the starvation medium on the cells. The cells were incubated at 37° C. for 1 hr before stimulation.
The cells were stimulated by Axl-antibody cross-linking as follows: A 5× 1st/2nd Axl antibody mixture was made (37.5 μg/mL 1st/100 μg/mL 2nd) in starvation medium and nutated at 4° C. with thorough mixing for 1-2 hours for clustering. The resulting mix was warmed to 37° C. 50 μL of 5× Axl 1st/2nd of antibody cluster was added to the cells and the cells were incubated at 37° C. for 5 min.
After 5 minutes stimulation, the plate was flicked to remove medium and the plate was tapped onto paper towels. Formaldehyde (4.0% in PBS, 100 μL) was added to fix the cells and the cells were incubated at ambient temperature for 20 min without shaking.
The cells were washed with a plate washer buffer to remove the formaldehyde solution. The plate was flicked to removed excess wash buffer and tapped onto paper towels. Quenching buffer (100 μL) was added to each well and the cells were incubated at ambient temperature for 20 minutes without shaking.
The cells were washed with a plate washer buffer to remove the quenching buffer. Blocking buffer (100 μL) was added and the cells were incubated at ambient temperature for at least an hour with gentle shaking.
The cells were washed with a plate washer buffer and diluted primary antibody (50 μL) was added to each well (blocking buffer was added to the negative control wells instead). The plates were incubated overnight at 4° C. with gentle shaking.
The wash buffer was removed, diluted secondary antibody (100 μL) was added, and the cells were incubated at ambient temperature for 1 hour with gentle shaking. […]

Going from `CC(=O)NC1CCc2ccc(Nc3nc(N)n(-c4cc5c(nn4)-c4ccccc4CCC5)n3)cc2CC1` (stereo not drawn) [Compound 1, 1-(6,7-dihydro-5H-benzo[6,7]cyclohepta[1,2-c]pyridazin-3-yl)-N^3-(7-(acetamido)-6,7,8,9-tetrahydro-5H-benzo[7]annulene-2-yl)-1H-1,2,4-triazole-3,5-diamine] to `CC(C)(C)OC(=O)N[C@H]1CCc2ccc(Nc3nc(N)n(-c4cc5c(nn4)-c4ccccc4CCC5)n3)cc2CC1` [Compound 13, 1-(6,7-dihydro-5H-benzo[6,7]cyclohepta[1,2-c]pyridazin-3-yl)-N^3-((7S)-7-(t-butoxycarbonylamino)-6,7,8,9-tetrahydro-5H-benzo[7]annulene-2-yl)-1H-1,2,4-triazole-3,5-diamine], the IC50 rises from under 1 µM to over 20 µM. The first is the more potent here.

`COC(=O)[C@H]1CCCN1C1CCc2ccc(Nc3nc(N)n(-c4cc5c(nn4)-c4ccccc4CCC5)n3)cc2CC1` (stereo partly drawn) [Compound 2, 1-(6,7-dihydro-5H-benzo[6,7]cyclohepta[1,2-c]pyridazin-3-yl)-N^3-(7-((2R)-2-(methoxycarbonyl)pyrrolidin-1-yl)-6,7,8,9-tetrahydro-5H-benzo[7]annulene-2-yl)-1H-1,2,4-triazole-3,5-diamine] and `Nc1nc(Nc2ccc3c(c2)CCC(N2CCC[C@@H]2C(=O)O)CC3)nn1-c1cc2c(nn1)-c1ccccc1CCC2` (stereo partly drawn) [Compound 5, 1-(6,7-dihydro-5H-benzo[6,7]cyclohepta[1,2-c]pyridazin-3-yl)-N^3-(7-((2R)-2-(carboxy)pyrrolidin-1-yl)-6,7,8,9-tetrahydro-5H-benzo[7]annulene-2-yl)-1H-1,2,4-triazole-3,5-diamine] cannot be ordered by IC50: under 1 µM for the first, under 1 µM for the second.

First: Nc1nc(Nc2ccc3c(c2)CCC(N2CCC(F)(F)CC2)CC3)nn1-c1cc2c(nn1)-c1ccccc1CCC2 (stereo not drawn) [Compound 3, 1-(6,7-dihydro-5H-benzo[6,7]cyclohepta[1,2-c]pyridazin-3-yl)-N^3-(7-(4,4-difluoropiperidin-1-yl)-6,7,8,9-tetrahydro-5H-benzo[7]annulene-2-yl)-1H-1,2,4-triazole-3,5-diamine]
Second: Nc1nc(Nc2ccc3c(c2)CCC(N2CCC(C(=O)O)CC2)CC3)nn1-c1cc2c(nn1)-c1ccccc1CCC2 (stereo not drawn) [Compound 7, 1-(6,7-dihydro-5H-benzo[6,7]cyclohepta[1,2-c]pyridazin-3-yl)-N^3-(7-(4-(carboxy)piperidin-1-yl)-6,7,8,9-tetrahydro-5H-benzo[7]annulene-2-yl)-1H-1,2,4-triazole-3,5-diamine]
The IC50 of the first is higher: 1 to 10 µM for the first, under 1 µM for the second.

Compared with `COC(=O)CN(C)C1CCc2ccc(Nc3nc(N)n(-c4cc5c(nn4)-c4ccccc4CCC5)n3)cc2CC1` (stereo not drawn) [Compound 4, 1-(6,7-dihydro-5H-benzo[6,7]cyclohepta[1,2-c]pyridazin-3-yl)-N^3-(7-((methoxycarbonylmethyl)(methyl)amino)-6,7,8,9-tetrahydro-5H-benzo[7]annulene-2-yl)-1H-1,2,4-triazole-3,5-diamine], `CN(CC(=O)O)C1CCc2ccc(Nc3nc(N)n(-c4cc5c(nn4)-c4ccccc4CCC5)n3)cc2CC1` (stereo not drawn) [Compound 8, 1-(6,7-dihydro-5H-benzo[6,7]cyclohepta[1,2-c]pyridazin-3-yl)-N^3-(7-((carboxymethyl)(methyl)amino)-6,7,8,9-tetrahydro-5H-benzo[7]annulene-2-yl)-1H-1,2,4-triazole-3,5-diamine] is higher in IC50: under 1 µM for the first, 1 to 10 µM for the second. The first is the more potent here.

`CCOC(=O)C1CCN(C2CCc3ccc(Nc4nc(N)n(-c5cc6c(nn5)-c5ccccc5CCC6)n4)cc3CC2)CC1` (stereo not drawn) [Compound 6, 1-(6,7-dihydro-5H-benzo[6,7]cyclohepta[1,2-c]pyridazin-3-yl)-N^3-(7-(4-(ethoxycarbonyl)piperidin-1-yl)-6,7,8,9-tetrahydro-5H-benzo[7]annulene-2-yl)-1H-1,2,4-triazole-3,5-diamine] and `CCOC(=O)CN1CCN(C2CCc3ccc(Nc4nc(N)n(-c5cc6c(nn5)-c5ccccc5CCC6)n4)cc3CC2)CC1` (stereo not drawn) [Compound 9, 1-(6,7-dihydro-5H-benzo[6,7]cyclohepta[1,2-c]pyridazin-3-yl)-N^3-(7-(4-(ethoxycarbonylmethyl)piperazin-1-yl)-6,7,8,9-tetrahydro-5H-benzo[7]annulene-2-yl)-1H-1,2,4-triazole-3,5-diamine] cannot be ordered by IC50: under 1 µM for the first, under 1 µM for the second.

`Nc1nc(Nc2ccc3c(c2)CCC(N2CCN(CC(=O)O)CC2)CC3)nn1-c1cc2c(nn1)-c1ccccc1CCC2` (stereo not drawn) [Compound 10, 1-(6,7-dihydro-5H-benzo[6,7]cyclohepta[1,2-c]pyridazin-3-yl)-N^3-(7-(4-(carboxymethyl)piperazin-1-yl)-6,7,8,9-tetrahydro-5H-benzo[7]annulene-2-yl)-1H-1,2,4-triazole-3,5-diamine] and `Nc1nc(Nc2ccc3c(c2)CC[C@@H](N)CC3)nn1-c1cc2c(nn1)-c1ccccc1CCC2` [Compound 15, 1-(6,7-dihydro-5H-benzo[6,7]cyclohepta[1,2-c]pyridazin-3-yl)-N^3-((7S)-7-amino-6,7,8,9-tetrahydro-5H-benzo[7]annulene-2-yl)-1H-1,2,4-triazole-3,5-diamine] fall in the same range of IC50: 1 to 10 µM for the first, 1 to 10 µM for the second.

For `Nc1nc(Nc2cccc3c2CCC(N2CCCC2)CC3)nn1-c1cc2c(nn1)-c1ccccc1CCC2` (stereo not drawn) [Compound 11, 1-(6,7-dihydro-5H-benzo[6,7]cyclohepta[1,2-c]pyridazin-3-yl)-N^3-(7-(pyrrolidin-1-yl)-6,7,8,9-tetrahydro-5H-benzo[7]annulene-1-yl)-1H-1,2,4-triazole-3,5-diamine], the IC50 was over 20 µM.

Same assay, conditions: Hela cells, stimulated by Axl-antibody cross-linking, phospho-Akt chemiluminescence; Table 2, formula (Ib)

Compared with `Nc1nc(Nc2cccc3c2CCC(N2CCCC2)CC3)n(-c2cc3c(nn2)-c2ccccc2CCC3)n1` (stereo not drawn) [Compound 12, 1-(6,7-dihydro-5H-benzo[6,7]cyclohepta[1,2-c]pyridazin-3-yl)-N^5-(7-(pyrrolidin-1-yl)-6,7,8,9-tetrahydro-5H-benzo[7]annulene-1-yl)-1H-1,2,4-triazole-3,5-diamine], `CC(C)(C)OC(=O)N[C@H]1CCc2ccc(Nc3nc(N)nn3-c3cc4c(nn3)-c3ccccc3CCC4)cc2CC1` [Compound 14, 1-(6,7-dihydro-5H-benzo[6,7]cyclohepta[1,2-c]pyridazin-3-yl)-N^5-((7S)-7-(t-butoxycarbonylamino)-6,7,8,9-tetrahydro-5H-benzo[7]annulene-2-yl)-1H-1,2,4-triazole-3,5-diamine] is higher in IC50: under 1 µM for the first, over 20 µM for the second.
